Results taken from US20240058312A1, “METHODS AND MATERIALS FOR TREATING BONE LOSS” (The Penn State Research Foundation, priority 2021, published 2024).

What was measured:
[1] = tested on: C57BL/6J mice with sciatic nerve, biceps femoris and quadriceps femoris muscle crush injury; experiment: DEXA scanning of tibial bone after sciatic nerve and muscle crush injury; type: in vivo; details: 40 μg/mouse/day IP for 21 days
Method: Ten-week-old male C57BL/6J mice (Jackson Laboratories, Bar Harbor, Maine) weighing 25±3 g were used. Sciatic nerve crush injury was performed with muscle crush injury as described elsewhere (Govindappa et al., Int. Immunopharmacol., 82:106330 (2020)). Briefly, after intraperitoneal (IP) ketamine (100 mg/kg)/xylazine (10 mg/kg) anesthesia, the right hindlimb was shaved and prepared with alcohol swabs and povidone-iodine (Betadine). Using a stereo zoom binocular microscope, a lateral skin incision (˜3 cm) was made along the length of the femur and the sciatic nerve (SN) was bluntly exposed through the iliotibial band. Nerve crush injury was performed ˜3 mm proximal to the SN trifurcation and muscle crush injury was performed at the center of Biceps femoris (BF) and Quadriceps femoris (QF) muscle using calibrated forceps (5 mm tip width; 18-1107, Miltex Instruments) for 30 seconds (nerve) and 60 seconds (muscles), respectively. Uninjured contralateral normal limbs were kept without injury as controls. The skin was closed using surgical staples and post-operative slow-release buprenorphine (0.05 mg/kg) was given subcutaneously to all animals as an analgesic. […]
The data were analyzed using one-way and two-way analysis of variance (ANOVA) using GraphPad Prism Version 8.2.0. […]

[2] = tested on: C57BL/6J mice with sciatic nerve, biceps femoris and quadriceps femoris muscle crush injury; experiment: micro-CT of tibial bone microarchitecture after sciatic nerve and muscle crush injury; type: in vivo; details: tibial metaphysis, 40 μg/mouse/day IP for 21 days, vs. saline
Method: Ten-week-old male C57BL/6J mice (Jackson Laboratories, Bar Harbor, Maine) weighing 25±3 g were used. Sciatic nerve crush injury was performed with muscle crush injury as described elsewhere (Govindappa et al., Int. Immunopharmacol., 82:106330 (2020)). Briefly, after intraperitoneal (IP) ketamine (100 mg/kg)/xylazine (10 mg/kg) anesthesia, the right hindlimb was shaved and prepared with alcohol swabs and povidone-iodine (Betadine). Using a stereo zoom binocular microscope, a lateral skin incision (˜3 cm) was made along the length of the femur and the sciatic nerve (SN) was bluntly exposed through the iliotibial band. Nerve crush injury was performed ˜3 mm proximal to the SN trifurcation and muscle crush injury was performed at the center of Biceps femoris (BF) and Quadriceps femoris (QF) muscle using calibrated forceps (5 mm tip width; 18-1107, Miltex Instruments) for 30 seconds (nerve) and 60 seconds (muscles), respectively. Uninjured contralateral normal limbs were kept without injury as controls. The skin was closed using surgical staples and post-operative slow-release buprenorphine (0.05 mg/kg) was given subcutaneously to all animals as an analgesic.
The experimental animals (6 animals/group) were randomized to normal saline (0.1 mL/mouse) and 4-AP (40 μg/mouse) treatment groups. 4-AP was given by IP injection immediately after surgery and daily for 21 days. Animals were euthanized using isoflurane on post-injury day 22 to harvest hindlimbs. Harvested hindlimbs were subjected to dual-energy X-ray absorptiometry (DEXA) and microcomputed tomography (micro-CT) scanning to analyze the bone quality.
The data were analyzed using one-way and two-way analysis of variance (ANOVA) using GraphPad Prism Version 8.2.0. All values are presented as mean±SEM. Probability (P) values of <0.05 were considered statistically significant.

For `Nc1ccncc1` [4-AP, 4-aminopyridine], the tibial bone volume ([1]; combined nerve and muscle crush injury, P<0.05 vs. saline, FIG. 1A) was “significantly improves”, the “BMD (bone mineral density) of tibial bone” value ([1]; nerve and muscle injury associated tibial bone, mean, P<0.05 vs. saline (76.57)) was 79.75 mg/cm^2 and the bone volume fraction [2] was “upregulating”. For the same compound, the “structural model index (SMI)” value [2] was “downregulated”, the trabecular separation [2] was “downregulated” and the trabecular thickness [2] was “upregulating”.
